Measured values published in ChEMBL document CHEMBL3045097, “Synthesis and anticonvulsant evaluation of 2-(substituted benzylidene/ethylidene)-N-(substituted phenyl)hydrazinecarboxamide analogues” (Med Chem Res, 2013).
Activity calls are given as the source filed them. The rule behind the calls is not given here.

Columns and labels:
[1] = tested on: Mus musculus; assay: Neurotoxicity in Mus musculus (mouse) assessed as motor impairment at 30 to 300 mg/kg, ip measured at 4 hr by rotarod test; assay type: toxicity, organism-based; set-up: dose 30-300 mg/kg, route intraperitoneal; settings: in vivo
[2] = tested on: Mus musculus; assay: Anticonvulsant activity in Mus musculus (mouse) assessed as protection against scMET-induced clonic seizures at 30 to 300 mg/kg, ip measured at 0.5 to 4 hr; assay type: functional, organism-based
[3] = tested on: Mus musculus; assay: Anticonvulsant activity in Mus musculus (mouse) assessed as protection against maximal-electric shock-induced seizures at 30 to 300 mg/kg, ip measured at 0.5 hr; assay type: functional, organism-based
[4] = tested on: Mus musculus; assay: Anticonvulsant activity in Mus musculus (mouse) assessed as protection against maximal-electric shock-induced seizures at 30 to 300 mg/kg, ip measured at 4 hr; assay type: functional, organism-based
[5] = tested on: Mus musculus; assay: Neurotoxicity in Mus musculus (mouse) assessed as motor impairment at 30 to 300 mg/kg, ip measured at 0.5 hr by rotarod test; assay type: toxicity, organism-based; set-up: dose 30-300 mg/kg, route intraperitoneal; settings: in vivo
[6] = tested on: Mus musculus; assay: Anticonvulsant activity in Mus musculus (mouse) assessed as protection against 6 Hz psychomotor-induced clonic seizures at 100 mg/kg, i.p. measured at 0.25 hr relative to control; assay type: functional
[7] = tested on: Mus musculus; assay: Neurotoxicity in Mus musculus (mouse) assessed as motor impairment at 100 mg/kg, ip measured at 0.5 hr by rotarod test relative to control; assay type: toxicity, organism-based; set-up: dose 100 mg/kg, route intraperitoneal; settings: in vivo
[8] = tested on: Mus musculus; assay: Anticonvulsant activity in Mus musculus (mouse) assessed as protection against 6 Hz psychomotor-induced clonic seizures at 100 mg/kg, i.p. measured at 0.5 hr relative to control; assay type: functional
[9] = tested on: Mus musculus; assay: Anticonvulsant activity in Mus musculus (mouse) assessed as protection against 6 Hz psychomotor-induced clonic seizures at 100 mg/kg, ip measured at 2 hr relative to control; assay type: functional
[10] = tested on: Mus musculus; assay: Neurotoxicity in Mus musculus (mouse) assessed as motor impairment at 100 mg/kg, ip measured at 1 hr by rotarod test relative to control; assay type: toxicity, organism-based; set-up: dose 100 mg/kg, route intraperitoneal; settings: in vivo
[11] = tested on: Mus musculus; assay: Anticonvulsant activity in Mus musculus (mouse) assessed as protection against 6 Hz psychomotor-induced clonic seizures at 100 mg/kg, i.p. measured at 1 hr relative to control; assay type: functional
[12] = tested on: Mus musculus; assay: Neurotoxicity in Mus musculus (mouse) assessed as motor impairment at 100 mg/kg, ip measured at 2 hr by rotarod test relative to control; assay type: toxicity, organism-based; set-up: dose 100 mg/kg, route intraperitoneal; settings: in vivo
[13] = tested on: Mus musculus; assay: Anticonvulsant activity in Mus musculus (mouse) assessed as protection against 6 Hz psychomotor-induced clonic seizures at 100 mg/kg, i.p. measured at 4 hr relative to control; assay type: functional
[14] = tested on: Mus musculus; assay: Neurotoxicity in Mus musculus (mouse) assessed as motor impairment at 100 mg/kg, ip measured at 4 hr by rotarod test relative to control; assay type: toxicity, organism-based; set-up: dose 100 mg/kg, route intraperitoneal; settings: in vivo
[15] = tested on: Mus musculus; assay: Neurotoxicity in Mus musculus (mouse) assessed as motor impairment at 100 mg/kg, ip measured at 0.25 hr by rotarod test relative to control; assay type: toxicity, organism-based; set-up: dose 100 mg/kg, route intraperitoneal; settings: in vivo
[16] = tested on: Mus musculus; assay: Neurotoxicity in i.p. dosed Mus musculus (mouse) assessed as motor impairment measured at 0.5 hr by rotarod test; assay type: toxicity, organism-based; settings: in vivo, ip
[17] = tested on: Mus musculus; assay: Anticonvulsant activity in i.p. dosed Mus musculus (mouse) assessed as protection against maximal-electric shock-induced seizures measured at 4 hr; assay type: functional; settings: ip, read-out: MED
[18] = tested on: Mus musculus; assay: Neurotoxicity in i.p. dosed Mus musculus (mouse) assessed as motor impairment measured at 4 hr by rotarod test; assay type: toxicity, organism-based; settings: in vivo, ip
[19] = tested on: Mus musculus; assay: Anticonvulsant activity in i.p. dosed Mus musculus (mouse) assessed as protection against maximal-electric shock-induced seizures measured at 0.5 hr; assay type: functional; settings: ip, read-out: MED

SMILES	Activity [1]	Activity [2]	Activity [3]	Activity [4]	Activity [5]	Activity [7]	Activity [10]	Activity [12]	Activity [14]	Activity [15]	minimal effective dose [17] [mg/kg]	also measured
O=C(N/N=C/c1ccc(Cl)cc1Cl)Nc1ccccc1Cl	Non-toxic	inactive	inactive	inactive	Non-toxic							
NNC(=O)Nc1ccccc1Cl	Non-toxic	inactive	inactive	inactive	Non-toxic	25%	25%	Non-toxic	25%	25%		Activity ([6]; route intraperitoneal): 100%; Activity ([8]; route intraperitoneal): 100%; Activity ([9]; route intraperitoneal): 100%; Activity ([11]; route intraperitoneal): 100%; Activity [13]: Active
O=C(N/N=C/c1ccc(Cl)cc1)Nc1ccccc1Cl	Non-toxic	inactive	inactive	inactive	Non-toxic							
COc1cc(/C=N/NC(=O)Nc2ccc(C)cc2)ccc1O	Non-toxic	inactive	inactive	inactive	Non-toxic							
C/C(=N\NC(=O)Nc1ccccc1Cl)c1ccc(C)cc1	Non-toxic	inactive	inactive	inactive	Non-toxic							
O=C(N/N=C/c1cccc(O)c1)Nc1ccccc1Cl	Non-toxic	inactive	inactive	inactive	Non-toxic							
Cc1ccc(NC(=O)N/N=C/c2ccccc2Cl)cc1	Non-toxic	inactive	inactive	inactive	Non-toxic							
CC(=O)C/C(C)=N/NC(=O)Nc1ccc(C)cc1	Non-toxic	inactive	inactive	inactive	Non-toxic							
C/C(=N\NC(=O)Nc1ccc(C)cc1)c1ccccc1O	Non-toxic	inactive	inactive	inactive	Non-toxic							
NC(=O)N1c2ccccc2C=Cc2ccccc21 [CARBAMAZEPINE]		inactive									100	MTC [16]: 100 mg/kg; MTC [18]: 300 mg/kg; minimal effective dose [19]: 30 mg/kg
COc1ccc(/C=N/NC(=O)Nc2ccccc2Cl)cc1OC	Non-toxic	inactive	inactive		Non-toxic	Non-toxic	Non-toxic	Non-toxic	Non-toxic	Non-toxic	100	Activity ([6]; route intraperitoneal): 25%; Activity [8]: inactive; Activity ([9]; route intraperitoneal): 25%; Activity [11]: inactive; Activity ([13]; route intraperitoneal): 25%
C/C(=N\NC(=O)Nc1ccccc1Cl)c1ccc(Cl)cc1	Non-toxic	inactive	inactive		Non-toxic	Non-toxic	Non-toxic	Non-toxic	Non-toxic	Non-toxic	100	Activity [6]: inactive; Activity [8]: inactive; Activity [9]: inactive; Activity ([11]; route intraperitoneal): 50%; Activity [13]: inactive
C/C(=N\NC(=O)Nc1ccc(C)cc1)c1ccc(O)cc1O	Non-toxic	inactive	inactive	inactive	Non-toxic							
O=C1NC(=O)C(c2ccccc2)(c2ccccc2)N1 [PHENYTOIN]		inactive									30	MTC [16]: 100 mg/kg; MTC [18]: 100 mg/kg; minimal effective dose [19]: 30 mg/kg
Cc1ccc(NC(=O)NN=C2CCCCC2)cc1	Non-toxic	inactive	inactive		Non-toxic	Non-toxic	Non-toxic	Non-toxic	Non-toxic	Non-toxic	300	Activity ([6]; route intraperitoneal): 25%; Activity ([8]; route intraperitoneal): 100%; Activity [9]: inactive; Activity ([11]; route intraperitoneal): 50%; Activity ([13]; route intraperitoneal): 25%
Cc1ccc(NC(=O)NN)cc1		inactive		inactive	Non-toxic	Non-toxic	Non-toxic	25%	50%	Non-toxic		Activity ([6]; route intraperitoneal): 100%; Activity ([8]; route intraperitoneal): 50%; MTC [18]: 300 mg/kg; Activity ([9]; route intraperitoneal): 25%; Activity ([11]; route intraperitoneal): 50%; minimal effective dose [19]: 300 mg/kg; Activity [13]: inactive
O=C(N/N=C/c1ccco1)Nc1ccccc1Cl	Non-toxic	inactive	inactive	inactive	Non-toxic							
COc1ccc(/C(C)=N/NC(=O)Nc2ccccc2Cl)cc1		inactive			Non-toxic						300	MTC [18]: 300 mg/kg; minimal effective dose [19]: 300 mg/kg
O=C(NN=C1CCCC1)Nc1ccccc1Cl	Non-toxic	inactive	inactive	inactive	Non-toxic							
Cc1ccc(NC(=O)N/N=C/c2cccc(O)c2)cc1	Non-toxic	inactive	inactive	inactive	Non-toxic	Non-toxic	Non-toxic	Non-toxic	Non-toxic	Non-toxic		Activity ([6]; route intraperitoneal): 50%; Activity ([8]; route intraperitoneal): 25%; Activity ([9]; route intraperitoneal): 25%; Activity [11]: inactive; Activity [13]: inactive
O=C(N/N=C/c1ccc(O)cc1)Nc1ccccc1Cl	Non-toxic	inactive	inactive		Non-toxic	Non-toxic	Non-toxic	Non-toxic	Non-toxic	Non-toxic	100	Activity ([6]; route intraperitoneal): 50%; Activity ([8]; route intraperitoneal): 100%; Activity ([9]; route intraperitoneal): 50%; Activity ([11]; route intraperitoneal): 50%; Activity [13]: inactive
